Each block holds one compound with its values, some of them ahead of it.
Legend:
[1] = tested on: human coronary artery smooth muscle cells (hCaSMC); test: 3H-thymidine uptake proliferation assay, hCaSMC; format: cell-based
Procedure: Experiments were performed to investigate interactions between zotarolimus (ABT-578) and paclitaxel when administered in combination. The effects of paclitaxel and zotarolimus on the anti-proliferative activity of human coronary artery smooth muscle ([…]) and endothelial […] determined using an in vitro proliferation assay. The proliferation and migration of vascular smooth muscle cells into the vascular neointima is a characteristic pathologic response seen in restenotic lesions (Lafont and Libby, 1998). As a result, in vitro assays which specifically measure the anti-proliferative activity of candidate anti-restenotic compounds on human coronary artery smooth muscle and endothelial cells predict potential anti-restenotic activity in vivo. Compounds or combinations of compounds which attenuate growth factor-mediated human coronary artery smooth muscle cell ([…]) proliferation, as measured by the tritium incorporation assay in vitro, are candidate anti-restenotic agents. The tritium incorporation assay is an accurate and sensitive method to determine cell number and proliferation. […] The attenuation of zotarolimus's anti-proliferative activity by tacrolimus is a clear example of this effect (FIG. 10A). To determine the potential anti-restenotic activity of combinations of zotarolimus and paclitaxel, the proliferation of […] was measured in the presence of each compound and in combination. To determine if paclitaxel attenuated or augmented the activity of zotarolimus the effect of paclitaxel and zotarolimus alone and in combination on growth-factor induced proliferation was determined. Data were analyzed for additivity using an isobologram approach and a combination index analysis. An isobologram is a Cartesian plot of pairs of doses that, in combination, yield a specified level of effect. It is a convenient way of graphically displaying results of drug-combination and similar studies, because paired values of experimental points that fall below or above the line connecting the axial points indicate synergistic and non-synergistic interactions, respectively. Cell proliferation was monitored by following incorporation of ^3H-thymidine into newly synthesized DNA of cells stimulated by serum and growth factors. Exponentially growing […] were seeded into 96-well flat bottom tissue culture plates at 5,000 cells/well (10,000 cells/well for […]). The cells were allowed to attach overnight. The growth medium was removed the following day, and cells were washed twice with un-supplemented (basal) medium to remove traces of serum and growth factors. […] PerkinElmer; Wellesley; MA) was added to each filter well and the plates were counted using a TopCount microplate scintillation counter (PerkinElmer). […]

[2] = cynomolgus monkey, in vivo, iv, 2.5 mg/kg
[3] = accelerated in vitro elution from PC1036 coated drug-loaded stents (Example 10); format: physicochemical; conditions: stents with 10 μg/mm zotarolimus alone or with paclitaxel
[4] = tested on: human coronary artery endothelial cells (hCaEC); test: 3H-thymidine uptake proliferation assay, hCaEC; format: cell-based
Procedure: Experiments were performed to investigate interactions between zotarolimus (ABT-578) and paclitaxel when administered in combination. The effects of paclitaxel and zotarolimus on the anti-proliferative activity of human coronary artery smooth muscle ([…]) and endothelial […] determined using an in vitro proliferation assay. The proliferation and migration of vascular smooth muscle cells into the vascular neointima is a characteristic pathologic response seen in restenotic lesions (Lafont and Libby, 1998). As a result, in vitro assays which specifically measure the anti-proliferative activity of candidate anti-restenotic compounds on human coronary artery smooth muscle and endothelial cells predict potential anti-restenotic activity in vivo. To determine if paclitaxel attenuated or augmented the activity of zotarolimus the effect of paclitaxel and zotarolimus alone and in combination on growth-factor induced proliferation was determined. Data were analyzed for additivity using an isobologram approach and a combination index analysis. An isobologram is a Cartesian plot of pairs of doses that, in combination, yield a specified level of effect. It is a convenient way of graphically displaying results of drug-combination and similar studies, because paired values of experimental points that fall below or above the line connecting the axial points indicate synergistic and non-synergistic interactions, respectively. Cell proliferation was monitored by following incorporation of ^3H-thymidine into newly synthesized DNA of cells stimulated by serum and growth factors. Exponentially growing […] were seeded into 96-well flat bottom tissue culture plates at 5,000 cells/well (10,000 cells/well for […]). The cells were allowed to attach overnight. […] PerkinElmer; Wellesley; MA) was added to each filter well and the plates were counted using a TopCount microplate scintillation counter (PerkinElmer). […] The concentration eliciting a specific anti-proliferative effect was determined using a four-parameter equation (equation 1): […]

Human MLR = test: human mixed lymphocyte reaction (MLR) assay; format: cell-based; conditions: read-out: Human MLR IC50 ± S.E.M.

Compound: C=CC[C@@H]1/C=C(\C)C[C@H](C)C[C@H](OC)[C@H]2O[C@@](O)(C(=O)C(=O)N3CCCC[C@H]3C(=O)O[C@H](/C(C)=C/[C@@H]3CC[C@@H](O)[C@H](OC)C3)[C@H](C)[C@@H](O)CC1=O)[C@H](C)C[C@@H]2OC [tacrolimus]
effect on the anti-proliferative activity of zotarolimus ([1]; smooth muscle cells in vitro, FIG. 10A): blocks the anti-proliferative activity of zotarolimus

Compound: COC1CC2CCC(C)C(O)(O2)C(=O)C(=O)N2CCCCC2C(=O)OC(C(C)CC2CCC(n3ccc(=O)cc3)C(OC)C2)CC(=O)C(C)C=C(C)C(O)C(OC)C(=O)C(C)CC(C)C=CC=CC=C1C (stereo not drawn) [Example 4-pyridone, 40-epi-N-[4′-pyridone]-rapamycin]
AUC [2]: 5.59 ng·h/mL

Compound: 40-epi-N-[2′-pyridone]-rapamycin [Example 2-pyridone]
AUC [2]: 2.55 ng·h/mL

The next lines start with results.

effect on the elution profile of zotarolimus [3]: little effect
Compound: CC(=O)O[C@H]1C(=O)[C@@]2(C)[C@H]([C@H](OC(=O)c3ccccc3)[C@]3(O)C[C@H](OC(=O)[C@H](O)[C@@H](NC(=O)c4ccccc4)c4ccccc4)C(C)=C1C3(C)C)[C@]1(OC(C)=O)CO[C@@H]1C[C@@H]2O [PAC, paclitaxel]
IC50 ([1]; Homo sapiens, read-out: hCaSMC IC50 Mean ± SEM): 3 ± 0.5 nM
effect on the inhibition of proliferation by zotarolimus ([1]; hCaSMC, FIG. 10B): not blocked
IC50 ([4]; Homo sapiens, Endothelial cell, read-out: hCaEC IC50 Mean ± SEM): 4.6 ± 0.3 nM
effect on the inhibition of proliferation by zotarolimus ([4]; hCaEC, FIG. 10C): not blocked

IC50 (Human MLR): 0.91 ± 0.36 nM
Compound: CO[C@H]1C[C@@H]2CC[C@@H](C)[C@@](O)(O2)C(=O)C(=O)N2CCCC[C@H]2C(=O)O[C@H]([C@H](C)C[C@@H]2CC[C@@H](O)[C@H](OC)C2)CC(=O)[C@H](C)/C=C(\C)[C@@H](O)[C@@H](OC)C(=O)[C@H](C)C[C@H](C)/C=C/C=C/C=C/1C [Rapamycin]

Reference: patent US20090162413A1 (priority 1998, published 2009)
